Columns and labels:
Format in all cases: in vivo
[1] = tested on: Viola tricolor (wild pansy); experiment: Greenhouse postemergence herbicidal effect on VIOTR
Text: (§1) Greenhouse Trial Methodology—Evaluation of Postemergence Herbicidal Effect
(§2) Seeds of the desired test plant species were planted in a 90:10% v/v (volume/volume) mixture of PRO-MIX® BX (Premier Tech Horticulture, Quakertown, Pa., USA) and PROFILE® GREENS GRADE™ (Profile Products LLC, Buffalo Grove, Ill., USA) planting mixture, which typically has a pH of 5.2 to 6.2 and an organic matter content of at least 50 percent, in plastic pots with a surface area of 103.2 square centimeters (cm^2). In some aspects or embodiments, to help ensure good germination and healthy plants, a fungicide treatment and/or other chemical or physical treatment was applied. The plants were grown for 7-36 days (d) in a greenhouse with an approximate 14-hour (h) photoperiod which was maintained at about 23° C. during the day and 22° C. during the night. Nutrients and water were added on a regular basis and supplemental lighting was provided with overhead metal halide 1000-Watt lamps as necessary. The plants were employed for testing when they reached the second or third true leaf stage.
(§3) Emulsifiable concentrates of each of each pyridine carboxylate herbicide (Compound A or Compound B) were prepared at 100 grams acid equivalent per liter (g ae/L). The emulsifiable concentrates also included a safener, cloquintocet mexyl, at 120 grams active ingredient per liter (g ai/L). An aliquot of each emulsifiable concentrate was placed in a 25 mL glass vial and diluted with an aqueous mixture of 1.25% (v/v) ACTIROB® B esterified rapeseed oil (Bayer Crop Science, Research Triangle Park, N.C., USA) or MSO® Concentrate with LECI-TECH® methylated soybean oil (Loveland Products, Loveland, Colo., USA) to obtain concentrated stock solutions at the highest application rate for each herbicide, based upon a 12 milliliter (mL) application volume at a rate of 187 liters per hectare (L/ha). The concentrated stock solutions were further diluted with an aqueous mixture of 1.25% v/v ACTIROB® B or MSO® Concentrate with LECI-TECH® to obtain stock solutions at reduced application rates for each herbicide. Spray solutions of the herbicide combinations (Compound A or Compound B plus PROTOX inhibitor herbicide) were prepared by adding weighed amounts or aliquots of the PROTOX inhibitor herbicides to the stock solutions of Compound A or Compound B to form 12-mL spray solutions in two-way combinations.
(§4) The spray solutions were applied to the plant material with an overhead Mandel track sprayer equipped with 8002E nozzles calibrated to deliver 187 L/ha over an application area of 0.503 square meters (m^2) at a spray height of 18 inches (43 centimeters (cm)) above the average plant canopy. Control plants were sprayed in the same manner with the solvent blank. All pyridine carboxylate herbicide (component a) application rates are given as “g ae/ha” and all PROTOX inhibitor herbicide (component b) application rates are given as “g ai/ha.”
(§5) The treated plants and control plants were placed in a greenhouse as described above and watered by sub-irrigation to prevent wash-off of the test compounds. After 20-22 d, the condition of the test plants as compared with that of the control plants was determined visually and scored on a scale of 0 to 100 percent where 0 corresponds to no injury and 100 corresponds to complete kill.

[2] = tested on: Setaria faberi (giant foxtail); experiment: Greenhouse postemergence herbicidal effect on SETFA
Text: as §1, §2, §3, §4, §5

Kochia scoparia (kochia) = experiment: Greenhouse postemergence herbicidal effect on KCHSC
Text: as §1, §2, §3, §4, §5

[3] = tested on: Digitaria sanguinalis (large crabgrass); experiment: Greenhouse postemergence herbicidal effect on DIGSA
Text: as §1, §2
(§6) Emulsifiable concentrates of each of each pyridine carboxylate herbicide (Compound A or Compound B) were prepared at 100 grams acid equivalent per liter (g ae/L). The emulsifiable concentrates also included a safener, cloquintocet mexyl, at 120 grams active ingredient per liter (g ai/L). […]
as §5

[4] = tested on: Sorghum vulgare (sorghum); experiment: Greenhouse postemergence herbicidal effect on SORVU
Text: as §1, §2, §6, §5

[5] = tested on: Cyperus esculentus (nutsedge); experiment: Greenhouse postemergence herbicidal effect on CYPES
Text: as §1, §2, §6, §5

[6] = tested on: Triticum aestivum (spring wheat); experiment: Greenhouse postemergence phytotoxicity on crop TRZAS
Text: as §1, §2, §3, §4, §5

[7] = tested on: Chenopodium album L. (common lambsquarters); experiment: Greenhouse postemergence herbicidal effect on CHEAL
Text: as §1, §2, §3, §4, §5

[8] = tested on: Brassica napus (winter rape); experiment: Greenhouse postemergence herbicidal effect on BRSNW
Text: as §1, §2, §3, §4, §5

[9] = tested on: Matricaria chamomilla (wild chamomile); experiment: Greenhouse postemergence herbicidal effect on MATCH
Text: as §1, §2, §3, §4, §5

[10] = tested on: Lamium purpureum (purple deadnettle); experiment: Greenhouse postemergence herbicidal effect on LAMPU
Text: as §1, §2
as §3, with “combinations. […]” for “combinations.”
as §5

[11] = tested on: Capsella bursa-pastoris (shepherd's purse); experiment: Greenhouse postemergence herbicidal effect on CAPBP
Text: as §1, §2
as §3, with “combinations. […]” for “combinations.”
as §5

[12] = tested on: Stellaria media (chickweed); experiment: Greenhouse postemergence herbicidal effect on STEME
Text: as §1, §2
as §3, with “combinations. […]” for “combinations.”
as §5

[13] = tested on: Anthemis arvensis (corn chamomile); experiment: Greenhouse postemergence herbicidal effect on ANTAR
Text: as §1, §2
as §3, with “combinations. […]” for “combinations.”
as §5

[14] = tested on: Hordeum vulgare (winter barley); experiment: Greenhouse postemergence phytotoxicity on crop HORVW
Text: as §1, §2
as §3, with “combinations. […]” for “combinations.”
as §5

[15] = Compound A 7.5, Oxyfluorfen 0 g/ha
[16] = Compound A 10, Oxyfluorfen 0 g/ha
[17] = Compound A 15, Oxyfluorfen 0 g/ha
[18] = Compound A 7.5, Saflufenacil 0 g/ha
[19] = Compound A 10, Saflufenacil 0 g/ha
[20] = Compound A 7.5, Carfentrazone-ethyl 0 g/ha
[21] = Compound A 7.5, Pyraclonil 0 g/ha
[22] = Compound A 7.5, Pyraflufen-ethyl 0 g/ha
[23] = Compound A 10, Carfentrazone-ethyl 0 g/ha
[24] = Compound A 10, Pyraclonil 0 g/ha
[25] = Compound A 10, Pyraflufen-ethyl 0 g/ha

SMILES: N#CCOC(=O)c1nc(-c2ccc3cc[nH]c3c2F)c(F)c(N)c1Cl [Compound A, cyanomethyl 4-amino-3-chloro-5-fluoro-6-(7-fluoro-1H-indol-6-yl)pyridine-2-carboxylate]
- % visual injury, Obs ([1]; Compound A 7.5, Bifenox 0 g/ha): 45%
- % visual injury, Obs [1, 15]: 13%
- % visual injury, Obs ([1]; Compound A 10, Bifenox 0 g/ha): 15%
- % visual injury, Obs [1, 16]: 15%
- % visual injury, Obs [1, 17]: 15%
- % visual injury, Obs ([2]; Compound A 7.5, Bifenox 0 g/ha): 60%
- % visual injury, Obs [2, 18]: 78%
- % visual injury, Obs ([2]; Compound A 10, Bifenox 0 g/ha): 78%
- % visual injury, Obs [2, 19]: 80%
- % visual injury, Obs (Kochia scoparia (kochia); Compound A 7.5, Bifenox 0 g/ha): 63%
- % visual injury, Obs (Kochia scoparia (kochia); [20]): 50%
- % visual injury, Obs (Kochia scoparia (kochia); [15]): 63%
- % visual injury, Obs (Kochia scoparia (kochia); [21]): 50%
- % visual injury, Obs (Kochia scoparia (kochia); [22]): 70%
- % visual injury, Obs (Kochia scoparia (kochia); Compound A 10, Bifenox 0 g/ha): 70%
- % visual injury, Obs (Kochia scoparia (kochia); [23]): 58%
- % visual injury, Obs (Kochia scoparia (kochia); [16]): 65%
- % visual injury, Obs (Kochia scoparia (kochia); [24]): 58%
- % visual injury, Obs (Kochia scoparia (kochia); [25]): 70%
- % visual injury, Obs (Kochia scoparia (kochia); [17]): 63%
- % visual injury, Obs ([3]; Compound A 7.5, Bifenox 0 g/ha): 13%
- % visual injury, Obs ([3]; Compound A 10, Bifenox 0 g/ha): 25%
- % visual injury, Obs [4, 18]: 0%
- % visual injury, Obs [4, 19]: 0%
- % visual injury, Obs [5, 18]: 30%
- % visual injury, Obs [5, 19]: 8%
- % visual injury, Obs [6, 20]: 0%
- % visual injury, Obs [6, 15]: 0%
- % visual injury, Obs [6, 21]: 0%
- % visual injury, Obs [6, 22]: 0%
- % visual injury, Obs [6, 18]: 5%
- % visual injury, Obs [6, 23]: 0%
- % visual injury, Obs [6, 16]: 0%
- % visual injury, Obs [6, 24]: 0%
- % visual injury, Obs [6, 25]: 0%
- % visual injury, Obs [6, 19]: 3%
- % visual injury, Obs [6, 17]: 0%
- % visual injury, Obs [7, 21]: 70%
- % visual injury, Obs [7, 22]: 75%
- % visual injury, Obs [7, 24]: 83%
- % visual injury, Obs [7, 25]: 80%
- % visual injury, Obs [8, 15]: 60%
- % visual injury, Obs [8, 22]: 35%
- % visual injury, Obs [8, 16]: 65%
- % visual injury, Obs [8, 25]: 40%
- % visual injury, Obs [8, 17]: 73%
- % visual injury, Obs [9, 15]: 23%
- % visual injury, Obs [9, 22]: 10%
- % visual injury, Obs [9, 16]: 35%
- % visual injury, Obs [9, 25]: 20%
- % visual injury, Obs [9, 17]: 45%
- % visual injury, Obs [10, 15]: 68%
- % visual injury, Obs [10, 16]: 73%
- % visual injury, Obs [10, 17]: 73%
- % visual injury, Obs [11, 15]: 45%
- % visual injury, Obs [11, 16]: 55%
- % visual injury, Obs [11, 17]: 55%
- % visual injury, Obs [12, 15]: 85%
- % visual injury, Obs [12, 16]: 88%
- % visual injury, Obs [12, 17]: 89%
- % visual injury, Obs [13, 15]: 68%
- % visual injury, Obs [13, 16]: 70%
- % visual injury, Obs [13, 17]: 88%
- % visual injury, Obs [14, 15]: 0%
- % visual injury, Obs [14, 16]: 0%
- % visual injury, Obs [14, 17]: 0%

From patent US12465050B2, “Compositions comprising a pyridine carboxylate herbicide and protoporphyrinogen oxidase (protox) inhibitor herbicides” (priority 2018, dated 2025)
